Laboratory results reported in patent US8334292B1, “Pyrimidine compounds and methods of making and using same” (Cystic Fibrosis Foundation Therapeutics, Inc., priority 2010, dated 2012).

How the values were obtained:
ΔF508 CTFR [1] = target: T1, ΔF508 CTFR (Homo sapiens, UniProt P13569, DEL508-508); test: Corrector assay, FRT cell electrophysiological (Ussing chamber) assay; type: cell-based; settings: FRT cells treated 24 hours with 3 μM compound; total change in ISC normalized to 10 μM reference corrector C17
T1 construct: expressed in transfected cells; host or cells: FRT epithelial cells (Fischer rat thyroid)
Procedure: (§1) For use in the corrector assay, FRT epithelial cell monolayers are grown on Snapwell filter inserts and optionally treated with a compound of invention, vehicle (DMSO) or reference corrector N-(2-(5-chloro-2-methoxyphenylamino)-4′-methyl-4,5′-bithiazol-2′-yl)pivalamide (C17). Cells are exposed to compound, vehicle (negative control) or reference corrector (positive control) in a cell/tissue incubator at 37° C. for 24 hours prior to the assay. The inserts are then transferred to a Physiologic Instruments Ussing chamber (P2302) and superfused with 5 ml of a HEPES buffered physiological saline (HB-PS) as the serosal solution with composition (in mM): NaCl, 137; KCl, 4.0; CaCl2, 1.8; MgCl2, 1; HEPES, 10; Glucose, 10; pH adjusted to 7.4 with NaOH. The mucosal solution will be 5 ml of 10CF—PS with composition (in mM): Na-gluconate, 137; KCl, 4; CaCl2, 1.8; MgCl2, 1; HEPES, 10; Glucose, 10; pH adjusted to 7.4 with N-methyl-D-glucamine to create a transepithelial Cl ion gradient. Transepithelial voltage is clamped to 0 mV and the short circuit current (ISC)—reflecting the net ion (Cl—) transport across the epithelial cell monolayer—is measured using a Physiologic Instruments VCC MC8 epithelial voltage clamp (Physiologic Instruments, Inc., San Diego, Calif.). The assay is carried out at 27° C.
(§2) After acquisition of at least 10 minutes of baseline current, agonists (final concentrations: 10 μM forskolin, 100 μM 3-isobutyl-1-methylxanthine [IBMX] and 20 μM genistein) and antagonist (final concentration: 20 μM CFTRinh-172) will be applied sequentially and cumulatively at ˜10-15 minute intervals to both serosal and mucosal epithelial surfaces. On occasion where a 10-15 min interval is not sufficient for ISC to reach a new steady-state after compound addition, the interval between compound additions may have been extended.
(§3) Agonists are added as 200×-1000× stock solutions to both the serosal and mucosal sides. Transepithelial resistance is monitored every 20 s. In a potentiator assay, appropriate volumes from 10 mM compound stock solution in DMSO are added to the mucosal side (i.e. the 10CF—PS solution containing half chamber) of vehicle treated inserts. Compound is added acutely after activation of CFTR by Forskolin and prior to additions of IBMX, genistein, and CFTRinh-172.
(§4) Corrector efficacy—as given in Table 3—is measured as the total change in ISC (i.e. the difference in ISC before and after addition of all agonists) obtained from cells treated with 3 μM compound of invention and normalized to the total change in ISC obtained from the same batch of cells treated contemporaneously with 10 μM reference corrector C17. Potentiator efficacy—as given in Table 3—is measured as the change in ISC after acute addition of 1 μM compound to the mucosal side of vehicle treated cells divided by the total change in ISC after sequential additions of 1 μM compound, 100 μM IBMX, and 20 μM genistein.

ΔF508 CTFR [2] = target: T1, ΔF508 CTFR; test: Potentiator assay, FRT cell electrophysiological (Ussing chamber) assay; type: cell-based; settings: change in ISC after acute addition of 1 μM compound to mucosal side of vehicle treated FRT cells divided by total change in ISC after 1 μM compound, 100 μM IBMX, 20 μM genistein
Procedure: as §1, §2, §3, §4

T1 sequence (P13569 with tags, fused parts or gaps DEL508-508): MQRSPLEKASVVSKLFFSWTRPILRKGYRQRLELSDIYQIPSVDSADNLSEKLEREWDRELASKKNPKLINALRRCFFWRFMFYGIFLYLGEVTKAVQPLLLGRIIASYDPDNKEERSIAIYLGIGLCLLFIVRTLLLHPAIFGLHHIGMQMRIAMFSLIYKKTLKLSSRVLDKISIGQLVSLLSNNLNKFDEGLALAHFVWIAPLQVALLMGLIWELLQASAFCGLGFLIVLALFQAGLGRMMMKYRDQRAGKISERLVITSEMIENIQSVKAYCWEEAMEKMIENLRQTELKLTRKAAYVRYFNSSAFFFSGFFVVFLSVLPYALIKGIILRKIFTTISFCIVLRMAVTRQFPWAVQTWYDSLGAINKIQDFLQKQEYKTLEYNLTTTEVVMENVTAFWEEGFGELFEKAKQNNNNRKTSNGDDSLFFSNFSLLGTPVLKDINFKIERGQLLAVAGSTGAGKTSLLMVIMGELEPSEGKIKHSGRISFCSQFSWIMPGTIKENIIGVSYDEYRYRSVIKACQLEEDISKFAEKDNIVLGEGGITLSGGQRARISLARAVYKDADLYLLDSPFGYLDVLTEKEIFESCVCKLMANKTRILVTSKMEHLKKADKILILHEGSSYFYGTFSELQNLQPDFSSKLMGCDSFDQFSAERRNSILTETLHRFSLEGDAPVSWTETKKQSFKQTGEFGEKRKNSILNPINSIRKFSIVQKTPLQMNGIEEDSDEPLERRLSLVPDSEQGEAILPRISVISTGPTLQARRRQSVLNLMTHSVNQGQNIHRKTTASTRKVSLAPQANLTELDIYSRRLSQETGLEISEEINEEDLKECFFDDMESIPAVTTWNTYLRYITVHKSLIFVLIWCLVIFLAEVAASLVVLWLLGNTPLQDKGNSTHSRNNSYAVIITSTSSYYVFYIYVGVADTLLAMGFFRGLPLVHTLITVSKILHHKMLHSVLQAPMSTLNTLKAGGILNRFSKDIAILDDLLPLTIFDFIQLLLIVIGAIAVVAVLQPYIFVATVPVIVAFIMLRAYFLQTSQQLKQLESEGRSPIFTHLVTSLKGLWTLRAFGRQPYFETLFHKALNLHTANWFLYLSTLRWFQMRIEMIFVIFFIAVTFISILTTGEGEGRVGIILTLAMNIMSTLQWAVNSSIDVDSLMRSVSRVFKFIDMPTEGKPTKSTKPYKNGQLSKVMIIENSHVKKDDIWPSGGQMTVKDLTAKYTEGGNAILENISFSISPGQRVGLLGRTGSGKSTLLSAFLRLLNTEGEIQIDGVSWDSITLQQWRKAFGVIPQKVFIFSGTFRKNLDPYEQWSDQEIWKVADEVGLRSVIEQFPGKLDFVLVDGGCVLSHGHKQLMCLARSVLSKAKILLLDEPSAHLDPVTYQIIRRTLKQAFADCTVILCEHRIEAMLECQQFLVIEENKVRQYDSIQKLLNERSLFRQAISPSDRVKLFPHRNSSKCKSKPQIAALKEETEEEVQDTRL

Row | SMILES | Corrector Efficacy (ΔF508 CTFR [1]) | Potentiator Efficacy (ΔF508 CTFR [2])
1 | CS(=O)(=O)N1CC[C@@H](COc2nc(N[C@H]3CC[C@@H](C)CC3)ncc2-c2ccc(N3CCOCC3)cc2)C1 [Example 78] | ++ (++=0.3-0.6) | + (+=<0.1)
2 | COCCc1ccc(-c2cnc(N[C@H]3CC[C@@H](C)CC3)nc2OC2CCN(C(=O)OC)CC2)cc1 [Example 206, methyl 4-(5-(4-(2-methoxyethyl)phenyl)-2-((1s,4s)-4-methylcyclohexylamino)pyrimidin-4-yloxy)piperidine-1-carboxylate] | ++ (++=0.3-0.6) | + (+=<0.1)
3 | Cc1nc(N[C@H]2CC[C@@H](C)CC2)nc(O[C@@H]2CCOC2)c1-c1ccc(N2CCOCC2)cc1 [Example 43, 4-methyl-N-((1s,4S)-4-methylcyclohexyl)-5-(4-morpholinophenyl)-6((R)-tetrahydrofuran-3-yloxy)pyrimidin-2-amine] | ++ (++=0.3-0.6) | + (+=<0.1)
4 | CC1CCC(Nc2ncc(-c3ccc(O[C@H]4CCOC4)cc3)c(OC3CN(S(=O)(=O)C4CC4)C3)n2)CC1 (stereo partly drawn) [Example 215, 4-(1-(cyclopropylsulfonyl)azetidin-3-yloxy)-N-((1s,4s)-4-methylcyclohexyl)-5-(4-((S)-tetrahydrofuran-3-yloxy)phenyl)pyrimidin-2-amine] | +++ (+++=>0.6) | +++ (+++=>0.25)
5 | CC1CCC(Nc2ncc(-c3ccc(O[C@@H]4CCOC4)cc3)c(OC3CCOCC3)n2)CC1 (stereo partly drawn) [Example 93, N-((1s,4s)-4-methylcyclohexyl)-4-(tetrahydro-2H-pyran-4-yloxy)-5-(4-((R)-tetrahydrofuran-3-yloxy)phenyl)pyrimidin-2-amine] | +++ (+++=>0.6) | ++ (++=0.1-0.25)
6 | CC1CCC(Nc2ncc(-c3ccc(O[C@H]4CCOC4)cc3)c(OC3CCN(S(C)(=O)=O)CC3)n2)CC1 (stereo partly drawn) [Example 152, N-((1s,4s)-4-methylcyclohexyl)-4-(1-(methylsulfonyl)piperidin-4-yloxy)-5-(4-((S)-tetrahydrofuran-3-yloxy)phenyl)pyrimidin-2-amine] | +++ (+++=>0.6) | +++ (+++=>0.25)
7 | C[C@H]1CC[C@@H](Nc2ncc(-c3ccc(O[C@H]4CCOC4)cc3)c(O[C@@H]3CCOC3)n2)CC1.Cl [Example 6, 4-((R)-tetrahydrofuran-3-yloxy)-5-(4-((S)-tetrahydrofuran-3-yloxy)phenyl)-N-(cis-4-methylcyclohexyl)pyrimidin-2-amine hydrochloride salt] | ++ (++=0.3-0.6) | ++ (++=0.1-0.25)
8 | COC(=O)N1CCC(Oc2ccc(-c3cnc(NC4CCC(C)CC4)nc3O[C@@H]3CCOC3)cc2)C1 (stereo partly drawn) [Example 103, methyl 3-(4-(2-((1s,4S)-4-methylcyclohexylamino)-4-((R)-tetrahydrofuran-3-yloxy)pyrimidin-5-yl)phenoxy)pyrrolidine-1-carboxylate] | ++ (++=0.3-0.6) | + (+=<0.1)
9 | CC1CCCC(C)C1Nc1ncc(-c2ccc(O[C@H]3CCOC3)cc2)c(O[C@@H]2CCOC2)n1 (stereo partly drawn) [Example 170, N-(2,6-dimethylcyclohexyl)-4-((R)-tetrahydrofuran-3-yloxy)-5-(4-((S)-tetrahydrofuran-3-yloxy)phenyl)pyrimidin-2-amine] | +++ (+++=>0.6) | + (+=<0.1)
10 | COCCOc1ccc(-c2cnc(N[C@H]3CC[C@@H](C)CC3)nc2OC2CN(S(C)(=O)=O)C2)cc1 [Example 153, 5-(4-(2-methoxyethoxy)phenyl)-N-((1s,4s)-4-methylcyclohexyl)-4-(1-(methylsulfonyl)azetidin-3-yloxy)pyrimidin-2-amine] | ++ (++=0.3-0.6) | + (+=<0.1)
11 | CS(=O)(=O)N1CC(COc2nc(N[C@H]3CC[C@@H](C)CC3)ncc2-c2ccc(N3CCOCC3)cc2)C1 [Example 80, N-((1s,4s)-4-methylcyclohexyl)-4-((1-(methylsulfonyl)azetidin-3-yl)methoxy)-5-(4-morpholinophenyl)pyrimidin-2-amine] | ++ (++=0.3-0.6) | +++ (+++=>0.25)
12 | CC1CCC(Nc2ncc(-c3ccc(O[C@H]4CCOC4)cc3)c(OC3CN(S(=O)(=O)N(C)C)C3)n2)CC1 (stereo partly drawn) [Example 214, N,N-dimethyl-3-(2-((1s,4s)-4-methylcyclohexylamino)-5-(4-((S)-tetrahydrofuran-3-yloxy)phenyl)pyrimidin-4-yloxy)azetidine-1-sulfonamide] | +++ (+++=>0.6) | + (+=<0.1)
13 | CN(C)S(=O)(=O)N1CC(Oc2nc(N[C@H]3CC[C@@H](C)CC3)ncc2-c2ccc(N3CCOCC3)cc2)C1 [Example 1, N,N-dimethyl-3-(2-((1s,4s)-4-methylcyclohexylamino)-5-(4-morpholinophenyl)-pyrimidin-4-yloxy)azetidine-1-sulfonamide] | +++ (+++=>0.6) | ++ (++=0.1-0.25)
14 | CC1CCC(Nc2ncc(-c3ccc(O[C@@H]4CCOC4)cc3)c(OC3CN(S(=O)(=O)N(C)C)C3)n2)CC1 (stereo partly drawn) [Example 207, N,N-dimethyl-3-(2-((1s,4s)-4-methylcyclohexylamino)-5-(4-((R)-tetrahydrofuran-3-yloxy)phenyl)pyrimidin-4-yloxy)azetidine-1-sulfonamide] | +++ (+++=>0.6) | + (+=<0.1)
15 | CS(=O)(=O)N1CC(Oc2nc(N[C@H]3CC[C@@H](C)CC3)ncc2-c2ccc(N3CCOCC3)cc2)C1 [Example 59, N-((1s,4s)-4-methylcyclohexyl)-4-(1-(methylsulfonyl)azetidin-3-yloxy)-5-(4-morpholinophenyl)pyrimidin-2-amine] | ++ (++=0.3-0.6) | + (+=<0.1)
16 | CC1CCC(Nc2ncc(-c3ccc(OC4CCN(C(=O)N(C)C)C4)cc3)c(O[C@@H]3CCOC3)n2)CC1 (stereo partly drawn) [Example 112, N,N-dimethyl-3-(4-(2-((1s,4S)-4-methylcyclohexylamino)-4-((R)-tetrahydrofuran-3-yloxy)pyrimidin-5-yl)phenoxy)pyrrolidine-1-carboxamide] | ++ (++=0.3-0.6) | + (+=<0.1)
